Patent publication US9329170B2, “Single cell gene expression for diagnosis, prognosis and identification of drug targets” (The Board of Trustees of the Leland Stanford Junior …, priority 2009, dated 2016)

System: murine breast cancer stem cells
Test: clonogenic ability of murine breast cancer stem cells
Format: cell-based
Settings: short, 24 hour exposure to the inhibitor; p<0.02, t test
Experimental: Many of these genes have been linked to self renewal and cancer. These include the insulin growth factor binding partner IGFBP3, the HOX family members HOXA3, HOXA5, ME1S1 as well as transcription factors like ETS1, ETS2, RUNX2 and STAT3. It was tested whether the transcription factor STAT3 is a bona fide cancer stem cell regulator. STAT3 plays a role in the maintenance of both ES cells and HSCs. […] Next, when we examined immunochemistry analysis of breast tumors the STAT3 positive cells tended to be concentrated on the invasive edge of the cancer and the protein was not seen in the more differentiated-looking cells in the interior parts of tumors. Finally, there are small molecule inhibitors of STAT3. Such inhibitors can be tested in cancer stem cell models. The effect of the STAT3 inhibitor cucurbitacin on the clonogenic ability of murine breast cancer stem cells was tested.

cucurbitacin
reduction of the number of colonies: ~50%
